This is an account of results in ChEMBL document CHEMBL1201862, “PubChem BioAssay data set” (2004).

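Step 1: Grow cells in 96-well plates. Step 2: Expose to compound for 48 hours at 5 concentrations. Step 3: Interpolate endpoints linearly; if unreached, use highest concentration. GI50 is the concentration that inhibits growth by half.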 Active and inactive are the calls of the source. Cut-off read from the data, not from the text of the source: active = GI50 up to about 1.1 µM and inactive = higher.

Some test systems named below: EKVX; OVCAR-4; ACHN; SN12C; SF-295; HCC 2998; U-251; OVCAR-8; SF-539; LXFL 529; HL-60; SF-268; SNB-19; A498; HCT-116; OVCAR-3; Malme-3M.
What all share (assay): inhibition of tumour cell growth, NCI panel, 48 h

As for `O=C(CN1CCCCC1)N1CCc2c([nH]c3ccccc23)C1c1cccnc1` (stereo unspecified), the GI50 with EKVX, with OVCAR-4, with ACHN, with SN12C, with SF-295 and with HCC 2998 was > 100 µM (inactive) throughout. For the same compound, the GI50 with U-251, with OVCAR-8, in the assay on SF-539, in the assay on LXFL 529, in the assay on HL-60 and in the assay with SF-268 was > 100 µM (inactive) in each case. Also, the GI50 with SNB-19, in the assay with A498, with HCT-116 and with OVCAR-3 was > 100 µM (inactive) in each case.

`COC(=O)C1=C(C)N(NC(N)=O)C(C)(O)C12CCOC2=O` (stereo unspecified): the GI50 was > 100 µM (inactive) in the assay on EKVX; > 100 µM (inactive) with OVCAR-4; > 100 µM (inactive) in the assay on ACHN; > 100 µM (inactive) with SN12C; > 100 µM (inactive) with SF-295; < 0.01 µM (active) with HCC 2998. Further, the GI50 with U-251, in the assay with OVCAR-8, in the assay with SF-539, in the assay with LXFL 529, in the assay on HL-60 and in the assay with Malme-3M was > 100 µM (inactive) throughout. For the same compound, the GI50 in the assay on SF-268, with SNB-19, with A498, in the assay on HCT-116 and in the assay on OVCAR-3 was > 100 µM (inactive) in each case.

In the case of `CC(=O)NNc1nc(C)c(C(=O)NNC(=O)C(=O)Nc2ccc(C)c(C)c2)s1`, the GI50 in the assay with EKVX is > 100 µM (inactive); with OVCAR-4 it was 72.9 µM (inactive); in the assay on ACHN, > 100 µM (inactive); with SN12C, > 100 µM (inactive); with SF-295 it was 78.5 µM (inactive); in the assay on HCC 2998, > 100 µM (inactive). Moreover, the GI50 with U-251 is 96.4 µM (inactive); in the assay on OVCAR-8, 55.5 µM (inactive); with SF-539, > 100 µM (inactive); in the assay with LXFL 529, 58.2 µM (inactive); in the assay on HL-60, 70.8 µM (inactive); in the assay with Malme-3M it was > 100 µM (inactive). In addition, the GI50 was > 100 µM (inactive) in the assay with SF-268; > 100 µM (inactive) in the assay with SNB-19; > 100 µM (inactive) in the assay with A498; > 100 µM (inactive) in the assay on HCT-116; 21.3 µM (inactive) in the assay on OVCAR-3.

On to `CN/N=C(/CC(=O)c1sc(-n2nc(-c3ccccc3)cc2-c2ccccc2)nc1C)C(=O)Nc1ccc(Cl)c(Cl)c1`, for which the GI50 was 0.787 µM (active) in the assay with EKVX; 52.6 µM (inactive) in the assay with OVCAR-4; 25.1 µM (inactive) in the assay on ACHN; 66.5 µM (inactive) in the assay with SN12C; 25.3 µM (inactive) in the assay on SF-295; 44.3 µM (inactive) in the assay on HCC 2998. Moreover, the GI50 with U-251 is 24.6 µM (inactive); in the assay on OVCAR-8, 51.1 µM (inactive); with SF-539, 40.2 µM (inactive); with LXFL 529, 26.3 µM (inactive); in the assay with Malme-3M, 78.3 µM (inactive); with SF-268, 35.2 µM (inactive). The GI50 in the assay on SNB-19 is > 100 µM (inactive); with A498, 16.1 µM (inactive); in the assay with HCT-116, 34.5 µM (inactive); in the assay with OVCAR-3, 38.7 µM (inactive).

Regarding `C=C1C(=O)OC2C1CC[C@H](C)C1(O)C(O)CC(=O)[C@@]21C` (stereo partly specified), the GI50 with EKVX was 19.5 µM (inactive); with ACHN, 19.5 µM (inactive); in the assay on SN12C it was 22 µM (inactive); in the assay with SF-295, 24.8 µM (inactive); in the assay on HCC 2998 it was 24 µM (inactive); in the assay on U-251, 49.8 µM (inactive). In addition, the GI50 in the assay with OVCAR-8 is 17.4 µM (inactive); with SF-539, 19 µM (inactive); in the assay on LXFL 529, > 10 µM (inactive); with HL-60, 17 µM (inactive); in the assay on Malme-3M, 17.3 µM (inactive); in the assay with SF-268, 23.3 µM (inactive). Also, the GI50 in the assay on SNB-19 was 52 µM (inactive); in the assay on A498, 10 µM (inactive); with HCT-116, 15 µM (inactive); in the assay with OVCAR-3, 21.2 µM (inactive).

On to `N/N=C1/C(=O)N(c2ccc(Cl)cc2)C(=O)C(=O)C1c1nc2ccccc2s1` (stereo unspecified), for which the GI50 in the assay on EKVX, in the assay with OVCAR-4, with ACHN, in the assay on SN12C, in the assay with SF-295 and in the assay on HCC 2998 was > 100 µM (inactive) each time. The GI50 with U-251, in the assay with OVCAR-8, in the assay with SF-539, in the assay on LXFL 529, in the assay with HL-60 and with Malme-3M was > 100 µM (inactive) throughout. Besides, the GI50 with SF-268, with SNB-19, in the assay on A498, in the assay on HCT-116 and in the assay with OVCAR-3 was > 100 µM (inactive) each time.

On to `CC1(O)CC2C(CC1SCCO)C2(C)C` (stereo unspecified), for which the GI50 with EKVX, in the assay on OVCAR-4, in the assay with ACHN, in the assay with SN12C, in the assay with SF-295 and with HCC 2998 was > 100 µM (inactive) throughout. The GI50 in the assay on U-251, in the assay with OVCAR-8, with SF-539, with LXFL 529, in the assay on HL-60 and in the assay with Malme-3M was > 100 µM (inactive) in each case. In addition, the GI50 in the assay with SF-268, in the assay with A498, in the assay with HCT-116 and in the assay on OVCAR-3 was > 100 µM (inactive) throughout.

Consider `IC[P+]1(c2ccccc2)CCCC1`, for which the GI50 is 16.7 µM (inactive) in the assay on EKVX; 82.4 µM (inactive) in the assay with ACHN; 14.3 µM (inactive) with SN12C; 40.1 µM (inactive) in the assay on SF-295; > 100 µM (inactive) with HCC 2998; 12.8 µM (inactive) in the assay on U-251. Besides, the GI50 was 32.4 µM (inactive) with OVCAR-8; 45.3 µM (inactive) with SF-539; 29.6 µM (inactive) in the assay with LXFL 529; 45.1 µM (inactive) with HL-60; 44.5 µM (inactive) in the assay with Malme-3M; 59.6 µM (inactive) in the assay on SNB-19. The GI50 in the assay with A498 is 23.8 µM (inactive); in the assay on HCT-116, 49.8 µM (inactive); with OVCAR-3 it was 43 µM (inactive).

Consider `COc1ccccc1NC(=O)C1=C(C)NC(C)=C(C(=O)Nc2ccccc2OC)C1c1ccccc1F`, for which the GI50 with EKVX was 50.2 µM (inactive); with OVCAR-4 it was > 100 µM (inactive); in the assay on ACHN, 51.6 µM (inactive); in the assay on SN12C it was > 100 µM (inactive); with SF-295, > 100 µM (inactive); in the assay on HCC 2998 it was > 100 µM (inactive). The GI50 in the assay on U-251 is 90.8 µM (inactive); with OVCAR-8, > 100 µM (inactive); with SF-539, 30.5 µM (inactive); in the assay on LXFL 529, 57.5 µM (inactive); in the assay on HL-60 it was 46.2 µM (inactive); with Malme-3M it was 63.1 µM (inactive). For the same compound, the GI50 was > 100 µM (inactive) in the assay with SF-268; > 100 µM (inactive) in the assay with SNB-19; > 100 µM (inactive) with A498; 59 µM (inactive) in the assay with HCT-116; > 100 µM (inactive) with OVCAR-3.

With `c1ccc(OCCSCCCCCCCCCCSCCOc2ccccc2)cc1`, the GI50 is 16.9 µM (inactive) in the assay with EKVX; 48.1 µM (inactive) in the assay with ACHN; > 100 µM (inactive) with SN12C; 30.7 µM (inactive) in the assay with SF-295; > 100 µM (inactive) with HCC 2998; 74.3 µM (inactive) in the assay with U-251. In addition, the GI50 in the assay with OVCAR-8 is 61.2 µM (inactive); in the assay with SF-539, > 100 µM (inactive); in the assay on LXFL 529, > 100 µM (inactive); with HL-60 it was > 100 µM (inactive); in the assay with Malme-3M, 14.7 µM (inactive); in the assay on SF-268, > 100 µM (inactive). Moreover, the GI50 is > 100 µM (inactive) in the assay with SNB-19, 27.5 µM (inactive) with A498 and > 100 µM (inactive) in the assay on OVCAR-3.

For `CC(C)=CC1CCc2ccccc2N1S(=O)(=O)c1ccc(C)cc1` (stereo unspecified), the GI50 in the assay on EKVX is 10.6 µM (inactive); with OVCAR-4, 4.31 µM (inactive); with ACHN it was 3.31 µM (inactive); with SN12C it was 2.99 µM (inactive); in the assay with SF-295, 1.5 µM (inactive); in the assay on HCC 2998, 1.27 µM (inactive). The GI50 in the assay on U-251 is 1.19 µM (inactive); with OVCAR-8 it was 2.72 µM (inactive); in the assay on SF-539, 1.16 µM (inactive); with LXFL 529, 2.36 µM (inactive); in the assay with HL-60 it was 0.272 µM (active); in the assay on Malme-3M it was 1.67 µM (inactive). Also, the GI50 in the assay on SF-268 was 2.93 µM (inactive); in the assay on SNB-19, 3.46 µM (inactive); in the assay with A498, 1.61 µM (inactive); in the assay with HCT-116, 0.982 µM (active); in the assay on OVCAR-3, 0.865 µM (active).

For the compound `CC(=O)NC1C(OCc2ccccc2)OC(COC(=O)CCCCCCCCCCNC(=O)CCNc2ccc([N+](=O)[O-])c3[nH]c4ccc(O)cc4c(=O)c23)C(O)C1OC(C)C(=O)N[C@H](C(=O)N[C@H](CCC(=O)O)C(N)=O)C(C)C` (stereo partly specified), the GI50 in the assay with EKVX is 96.8 µM (inactive); in the assay on OVCAR-4, 35.4 µM (inactive); in the assay with ACHN, 60.7 µM (inactive); in the assay on SN12C, 64 µM (inactive); in the assay with SF-295 it was > 100 µM (inactive); with HCC 2998 it was 23.8 µM (inactive). For the same compound, the GI50 is 44.4 µM (inactive) in the assay on U-251; > 100 µM (inactive) with OVCAR-8; 40.1 µM (inactive) with SF-539; 81.8 µM (inactive) with LXFL 529; 63.4 µM (inactive) in the assay on HL-60; 22.9 µM (inactive) with Malme-3M. The GI50 is > 100 µM (inactive) in the assay on SF-268; 46.9 µM (inactive) in the assay on SNB-19; 69.8 µM (inactive) in the assay on A498; 53.7 µM (inactive) in the assay with HCT-116; 84.9 µM (inactive) with OVCAR-3.
